“Also recorded” adds a separate entry of the source. Where two headings read alike, the source gives them in different places.
Tests used:
VEGF receptor KDR = target: T1, VEGF receptor KDR (Homo sapiens, UniProt P35968); assay: Binding of 125I-VEGF to endothelial cells transfected with VEGF receptor KDR; set-up: species or system bovine; conditions: FIG. 10A
T1 construct: expressed in transfected cells; host or cells: bovine aortic endothelial cells
Protocol: Binding of ^125I-VEGF to confluent monolayers of endothelial cells expressing KDR was performed as described in Methods, section (x), in the presence of increasing concentrations of P1 and of unlabeled VEGF; and
x) Binding of ^125I-VEGF to cells. Confluent cultures of bovine aortic endothelial cells transfected with the VEGF receptor KDR were tested for binding of radiolabeled ^125I-VEGF as described in method (iv) above for the FGFR-1 expressing cells.

[1] = target: EGF tyrosine kinase receptor (Homo sapiens, UniProt P00533); assay: Binding of EGF to its high affinity tyrosine kinase receptor
[2] = tested on: Lewis lung carcinoma (LLC) lung metastasis; assay: Lewis lung carcinoma lung metastasis model; format: in vivo, C57 black mice; set-up: Inhibitory activity in vivo, LLC tumor model (as % of total inhibition): reference not given here; conditions: for Inhibitory activity in vivo, LLC tumor model (as % of total inhibition): 25 μg/gram, LLC murine tumor model, lung metastasis
Protocol: (§1) (vii) Lewis lung carcinoma tumor assay. Murine Lewis lung carcinoma (LLC) D122 cells (1×10^6 cells/[…] PBS) were injected into the foot pads of 10-week old C57 black mice (O'Reilly et al, 1994). Twenty five μg/g of body mass of porphyrin or corrole compound dissolved in PBS were injected IP twice a week to the treated group, and tumor size was measured periodically in order to follow primary tumor formation. In order to evaluate inhibition of lung metastasis by porphyrin or corrole compound, the primary tumors were allowed to develop over a period of six weeks to a volume of approximately 8 mm^3; after which the tumors were removed and metastases were allowed to develop for four weeks. During this time the treated group received 25 μg/g of body mass of porphyrin or corrole compound IP twice a week. Subsequently the mice were sacrificed, dissected and the lungs removed and photographed. The extent of lung metastasis was measured by weighing the lungs.
After establishing the capacity of P1 to inhibit primary tumor growth, the capacity of P1 to inhibit lung metastasis formation was measured as described in Methods, section (vi). Mice were injected with LLC cells (200,000 cells per mouse) into the foot pad and primary tumors were allowed to develop over a period of 3 to 4 weeks to a volume of approximately 8 mm^3. Subsequently, primary tumors were removed through amputation and lung metasases were allowed to develop for four weeks before the mice were sacrificed. The extent of lung metastasis at this point was examined by gross morphological examination and by determining the gain in lung weight. […] In order to quantitate the results from these experiments, the lungs from all mice were weighed and evaluated for the extent of metastatic growth.

FGFR-1 = FGFR-1 (Mus musculus, UniProt P16092); assay: Binding of 125I-bFGF to CHO cells expressing FGFR-1
Protocol: The binding medium was discarded and the cells were washed once with ice-cold DMEM/BSA and twice with cold PBS (pH 7.5) containing 1.6M NaCl. […] Non-specific binding was determined in the presence of a 100-fold excess of unlabeled bFGF.
First we utilized a cell-free system, measuring the binding of radiolabeled bFGF to a dimeric soluble FGFR-1 fused to alkaline phosphatase. The soluble FRAP was immobilized using an anti-alkaline phosphatase antibody prebound to agarose-protein A beads (see Methods, section (iii)). As a: second experimental model, we used CHO cells deficient in heparan sulfate and genetically engineered to express FGFR-1 (Methods, section (iv)).

[3] = tested on: FGFR-3 expressing CHO cells; assay: FGF-9 induced mitogenic activity (DNA synthesis) of FGFR-3 expressing CHO cells; format: cell-based; conditions: FIG. 13
Protocol: CHO cells genetically engineered to express FGFR-3 were grown in the presence of increasing concentrations of porphyrins P1 and P16 in order to determine the ability of the porphyrins to inhibit FGF-9 induced DNA synthesis.
CHO cells genetically engineered to express FGFR-3 were used in order to determine the ability of the porphyrins P1 and P16 to inhibit biological activity of FGFR3 as measured by the level of DNA synthesis induced by FGF-9.

soluble FGFR-1 (FRAP) = target: T2, soluble FGFR-1 (FRAP) (Mus musculus, UniProt P16092); assay: Binding of 125I-bFGF to immobilized soluble FGFR-1 (FRAP), cell-free
T2 sequence (P16092 22-376 limits assumed): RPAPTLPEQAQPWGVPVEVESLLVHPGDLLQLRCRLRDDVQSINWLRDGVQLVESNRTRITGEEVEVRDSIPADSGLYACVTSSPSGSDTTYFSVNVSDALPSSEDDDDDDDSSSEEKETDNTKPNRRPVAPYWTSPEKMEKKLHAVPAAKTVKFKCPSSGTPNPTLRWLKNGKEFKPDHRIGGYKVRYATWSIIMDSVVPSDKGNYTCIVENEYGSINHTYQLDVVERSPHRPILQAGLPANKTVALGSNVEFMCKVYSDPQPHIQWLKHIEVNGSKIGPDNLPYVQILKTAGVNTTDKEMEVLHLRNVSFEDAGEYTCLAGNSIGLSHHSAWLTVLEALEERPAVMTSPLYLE
From the text: First we utilized a cell-free system, measuring the binding of radiolabeled bFGF to a dimeric soluble FGFR-1 fused to alkaline phosphatase. […] As a: second experimental model, we used CHO cells deficient in heparan sulfate and genetically engineered to express FGFR-1 (Methods, section (iv)).

[4] = tested on: Lewis lung carcinoma (LLC) D122 cells; assay: Lewis lung carcinoma primary tumor growth (foot pad); format: in vivo, C57 black mice; conditions: 25 μg/g of body mass IP twice a week
Protocol: as §1
Inhibition of primary tumor growth was tested using the well-established LLC murine tumor growth and metastasis model (Methods, section (vii)). LLC D122 cells (200,000 cells per mouse) were injected into the foot pads of 10-week old C57 black mice. […] The inhibition of the foot pad primary carcinoma tumor growth was statistically established and reproducible in five experiments.

FGF receptor = FGF receptor (Mus musculus, UniProt P16092); assay: In vitro inhibition of bFGF binding (assay format not stated); conditions: inhibition of bFGF binding
PLC-γ = PLC-γ phosphorylation in FGFR-3 expressing cells induced by FGF-9; format: cell-based; conditions: FIG. 15A
Protocol: (§2) (viii) Immunoblots. To the overnight serum-starved cells (2 plates for each treatment), 500 μl of F12^++ medium were added which either contained or not the respective porphyrin or corrole compound in a final concentration of […] for 40 min at 37° C. One of the two plates of each treatment was then stimulated with FGF9 (+) (75 ng/ml) and to the second plate only medium (−) was added for 10 min at 37° C. The cells were washed twice with PBS. 600 μl of SBN lysis buffer containing 1% NP-40 and 1 mM vanadate were added and left on ice for 10 min. The plates were then scraped and left on ice for additional 10 min. The lysate was span down in Eppendorf centrifuge for 15 min, 15000 rpm at 4° C. The supernatants were kept and Bradford protein determinant on assay was performed in the samples. 500 μg protein from each sample were taken for immunoprecipitation with 7.5 μl antibody against FGFR-3, 4 hr at 4° C.
These findings support the notion that the porphyrins can serve for treating FGFR-3 related growth disorders. ERK1 and ERK2 are two isoforms of ERK.

FGFR-3 = target: T3, FGFR-3 (Homo sapiens, UniProt P22607); assay: FGFR-3 tyrosine phosphorylation immunoblot (FGF-9 induced); format: cell-based; conditions: FIG. 14
T3 construct: expressed in transfected cells; host or cells: CHO cells (mutant 745)
Protocol: as §2
In order to measure the ability of the porphyrins to inhibit the receptor activation on an enzymatic level as well, FGFR-3 tyrosine phosphorylation was measured in the presence of P16, as described in Methods, section (viii).

Chain of FGFR-1 (P16092 22-822): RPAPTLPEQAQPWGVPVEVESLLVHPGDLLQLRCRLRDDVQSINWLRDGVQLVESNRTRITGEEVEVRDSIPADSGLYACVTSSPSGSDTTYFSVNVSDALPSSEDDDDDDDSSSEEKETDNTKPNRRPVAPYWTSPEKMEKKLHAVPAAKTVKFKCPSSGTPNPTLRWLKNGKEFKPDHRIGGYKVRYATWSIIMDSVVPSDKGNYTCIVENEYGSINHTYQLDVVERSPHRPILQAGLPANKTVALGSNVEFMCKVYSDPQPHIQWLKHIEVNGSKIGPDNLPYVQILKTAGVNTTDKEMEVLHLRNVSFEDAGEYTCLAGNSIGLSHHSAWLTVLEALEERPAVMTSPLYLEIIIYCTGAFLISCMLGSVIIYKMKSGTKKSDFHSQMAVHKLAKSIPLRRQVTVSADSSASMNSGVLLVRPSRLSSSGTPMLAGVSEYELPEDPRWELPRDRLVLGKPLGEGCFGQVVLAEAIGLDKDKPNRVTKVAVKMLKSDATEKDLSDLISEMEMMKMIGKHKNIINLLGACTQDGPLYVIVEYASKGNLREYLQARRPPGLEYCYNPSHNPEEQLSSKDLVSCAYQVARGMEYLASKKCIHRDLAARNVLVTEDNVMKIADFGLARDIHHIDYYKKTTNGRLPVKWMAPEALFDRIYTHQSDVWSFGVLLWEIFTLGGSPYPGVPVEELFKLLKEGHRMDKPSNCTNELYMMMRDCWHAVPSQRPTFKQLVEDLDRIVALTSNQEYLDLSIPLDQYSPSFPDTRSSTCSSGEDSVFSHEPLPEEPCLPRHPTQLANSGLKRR
T3 sequence (P22607 23-806, species assumed): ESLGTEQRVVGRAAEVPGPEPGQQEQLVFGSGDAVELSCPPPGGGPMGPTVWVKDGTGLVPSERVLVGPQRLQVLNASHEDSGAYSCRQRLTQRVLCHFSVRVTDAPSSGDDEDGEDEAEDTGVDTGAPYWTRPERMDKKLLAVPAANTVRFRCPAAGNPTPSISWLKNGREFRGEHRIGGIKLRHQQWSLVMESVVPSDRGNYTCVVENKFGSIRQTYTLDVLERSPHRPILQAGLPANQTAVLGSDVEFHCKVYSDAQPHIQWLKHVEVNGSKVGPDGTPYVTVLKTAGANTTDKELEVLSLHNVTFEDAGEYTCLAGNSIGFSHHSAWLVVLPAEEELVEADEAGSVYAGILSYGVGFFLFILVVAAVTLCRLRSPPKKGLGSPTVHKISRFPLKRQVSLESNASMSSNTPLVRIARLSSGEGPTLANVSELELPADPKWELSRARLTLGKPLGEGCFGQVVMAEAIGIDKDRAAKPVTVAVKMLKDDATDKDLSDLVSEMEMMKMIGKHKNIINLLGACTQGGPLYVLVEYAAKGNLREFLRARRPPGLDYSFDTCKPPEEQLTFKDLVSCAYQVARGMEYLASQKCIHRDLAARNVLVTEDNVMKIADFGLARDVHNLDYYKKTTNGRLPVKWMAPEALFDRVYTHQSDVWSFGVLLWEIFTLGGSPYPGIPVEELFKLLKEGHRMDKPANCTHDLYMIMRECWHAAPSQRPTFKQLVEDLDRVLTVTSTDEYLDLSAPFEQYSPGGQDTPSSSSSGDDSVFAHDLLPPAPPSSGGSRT
Chain of EGF tyrosine kinase receptor (P00533 25-1210): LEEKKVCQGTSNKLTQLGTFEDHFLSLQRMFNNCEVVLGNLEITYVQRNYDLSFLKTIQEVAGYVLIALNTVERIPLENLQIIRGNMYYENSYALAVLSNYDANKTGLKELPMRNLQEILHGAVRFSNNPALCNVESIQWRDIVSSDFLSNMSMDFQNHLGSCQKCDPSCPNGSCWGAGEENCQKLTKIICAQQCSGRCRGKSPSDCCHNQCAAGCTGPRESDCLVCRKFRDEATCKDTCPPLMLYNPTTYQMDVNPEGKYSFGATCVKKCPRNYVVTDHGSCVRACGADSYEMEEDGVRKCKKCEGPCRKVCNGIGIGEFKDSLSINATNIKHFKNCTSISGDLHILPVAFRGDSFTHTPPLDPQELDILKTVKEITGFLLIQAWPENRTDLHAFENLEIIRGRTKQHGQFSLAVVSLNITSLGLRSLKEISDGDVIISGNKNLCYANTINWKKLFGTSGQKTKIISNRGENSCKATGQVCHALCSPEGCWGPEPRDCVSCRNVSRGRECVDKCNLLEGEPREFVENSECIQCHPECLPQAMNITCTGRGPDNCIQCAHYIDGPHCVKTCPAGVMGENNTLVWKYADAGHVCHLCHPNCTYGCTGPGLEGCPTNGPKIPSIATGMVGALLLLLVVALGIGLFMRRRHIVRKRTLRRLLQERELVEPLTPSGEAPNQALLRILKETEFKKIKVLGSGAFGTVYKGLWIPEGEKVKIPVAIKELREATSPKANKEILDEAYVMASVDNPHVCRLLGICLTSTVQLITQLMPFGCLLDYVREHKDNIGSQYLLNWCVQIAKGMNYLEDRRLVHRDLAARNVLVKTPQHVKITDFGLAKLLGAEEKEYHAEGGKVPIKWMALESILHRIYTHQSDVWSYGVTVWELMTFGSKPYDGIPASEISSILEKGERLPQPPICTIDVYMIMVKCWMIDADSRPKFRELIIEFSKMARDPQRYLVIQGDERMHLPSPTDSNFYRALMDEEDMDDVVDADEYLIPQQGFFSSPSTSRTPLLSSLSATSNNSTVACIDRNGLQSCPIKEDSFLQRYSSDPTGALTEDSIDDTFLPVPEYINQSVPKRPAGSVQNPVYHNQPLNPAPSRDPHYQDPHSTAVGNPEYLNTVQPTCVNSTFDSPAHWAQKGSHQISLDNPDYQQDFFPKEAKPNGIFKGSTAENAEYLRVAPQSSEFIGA
T1 sequence (P35968 20-1356): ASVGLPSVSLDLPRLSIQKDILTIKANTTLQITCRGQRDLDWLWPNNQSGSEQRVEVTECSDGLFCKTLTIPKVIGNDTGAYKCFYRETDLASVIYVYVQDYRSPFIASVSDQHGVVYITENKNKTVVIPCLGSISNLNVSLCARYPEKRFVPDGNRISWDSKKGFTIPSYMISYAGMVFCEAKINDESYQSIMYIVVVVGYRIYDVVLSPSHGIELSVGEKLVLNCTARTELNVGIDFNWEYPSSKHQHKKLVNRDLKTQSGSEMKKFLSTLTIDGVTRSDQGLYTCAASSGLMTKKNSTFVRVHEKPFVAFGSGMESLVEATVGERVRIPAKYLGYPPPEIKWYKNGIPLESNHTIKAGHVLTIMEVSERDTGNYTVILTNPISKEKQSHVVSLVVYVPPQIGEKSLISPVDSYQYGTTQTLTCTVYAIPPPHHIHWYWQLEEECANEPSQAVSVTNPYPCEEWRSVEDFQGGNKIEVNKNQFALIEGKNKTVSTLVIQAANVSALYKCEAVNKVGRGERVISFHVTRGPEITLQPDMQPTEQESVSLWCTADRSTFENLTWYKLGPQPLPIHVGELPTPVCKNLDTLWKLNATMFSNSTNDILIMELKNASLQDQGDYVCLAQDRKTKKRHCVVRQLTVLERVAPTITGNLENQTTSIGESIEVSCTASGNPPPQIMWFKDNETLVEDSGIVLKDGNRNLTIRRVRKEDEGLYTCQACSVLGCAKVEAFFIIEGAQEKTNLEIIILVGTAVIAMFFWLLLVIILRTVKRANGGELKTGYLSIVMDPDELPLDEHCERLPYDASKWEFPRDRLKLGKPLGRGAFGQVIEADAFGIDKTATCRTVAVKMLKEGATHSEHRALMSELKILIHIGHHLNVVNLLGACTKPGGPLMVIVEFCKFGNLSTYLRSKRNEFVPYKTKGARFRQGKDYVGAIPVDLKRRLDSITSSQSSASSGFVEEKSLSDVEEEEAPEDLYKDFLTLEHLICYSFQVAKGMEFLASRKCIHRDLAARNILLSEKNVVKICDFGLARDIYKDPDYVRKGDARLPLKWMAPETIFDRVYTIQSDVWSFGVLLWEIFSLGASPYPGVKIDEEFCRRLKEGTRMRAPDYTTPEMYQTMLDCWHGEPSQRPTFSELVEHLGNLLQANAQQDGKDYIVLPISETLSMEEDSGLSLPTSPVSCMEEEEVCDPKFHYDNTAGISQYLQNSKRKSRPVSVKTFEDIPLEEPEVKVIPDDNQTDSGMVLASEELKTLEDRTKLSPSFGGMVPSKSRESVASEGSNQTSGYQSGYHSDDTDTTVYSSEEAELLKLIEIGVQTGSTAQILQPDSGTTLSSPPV
Chain of FGF receptor (P16092 22-822): as the sequence (P16092 22-822) above

Activity in vitro relative to P1 (fold) (FGF receptor)	IC50 (FGFR-1; read-out: Cellular receptor binding (IC50), binding of FGF to FGFR, Methods section (iv)) [nM]	IC50 (soluble FGFR-1 (FRAP); read-out: Soluble receptor binding (IC50), binding of FGF to FGFR, Methods section (iii)) [nM]	Structure (SMILES)	Inhibition of 125I-VEGF binding to KDR/flk-1 expressing cells, in words (VEGF receptor KDR)	Inhibition of EGF binding to its receptor [1]	Inhibition of lung metastasis in LLC model, in words ([2]; 25 μg/g of body mass IP)	Inhibitory activity in vivo, LLC tumor model (as % of total inhibition) [2] [%]	Lung weight ([2]; P1 25 μg/g of body mass, FIG. 7)	IC50 (FGFR-1; Cellular receptor binding (IC50), binding of FGF to FGFR, Methods section (iv)) [nM]	IC50 (FGFR-1; IC50, bFGF binding in the cellular receptor system, FIG. 1C) [nM]	Effect on cell proliferation induced by FGF-9 [3]	IC50 (soluble FGFR-1 (FRAP); IC50, bFGF-FGFR1 binding in the soluble receptor (FRAP) assay, FIG. 1B) [nM]	IC50 (soluble FGFR-1 (FRAP); Soluble receptor binding (IC50), binding of FGF to FGFR, Methods section (iii)) [nM]	Inhibition of primary tumor growth in LLC model, in words [4]	Effect on PLC-γ activation (PLC-γ)	Effect on FGFR-3 tyrosine phosphorylation (FGFR-3)
			C[n+]1ccc(-c2c3nc(c(-c4cc[n+](C)cc4)c4ccc([nH]4)c(-c4cc[n+](C)cc4)c4nc(c(-c5cc[n+](C)cc5)c5ccc2[nH]5)C=C4)C=C3)cc1 [Compound P1, 5,10,15,20-Tetrakis(N-methyl-4-pyridylium)-21H,23H-porphine tetra-p-tosylate]	efficiently inhibits	does not inhibit	no metastatic phenotype; also recorded: nearly total inhibition of the metastatic phenotype	100	around 200 mg	1500	~2500	strong inhibitory effect	~1000	750	marked inhibition in primary tumor growth		
about 50 fold	20	10	C[n+]1ccc(-c2c3nc(c(-c4cc[n+](C)cc4)c4ccc([nH]4)c(-c4c(F)c(F)c(F)c(F)c4F)c4nc(c(-c5cc[n+](C)cc5)c5ccc2[nH]5)C=C4)C=C3)cc1.[I-].[I-].[I-] [Compound P16, 5-Pentafluorophenyl-10,15,20-tris(N-methyl-4-pyridylium)-21H,23H-porphine triiodide]				60				strong inhibitory effect				clear reduction in the activation	reduced both the basal and, to a much greater extent, the FGF-9 induced phosphorylation of FGFR-3

Reference: patent US6730666B1, “Pharmaceutical compositions comprising porphyrins and some novel porphyrin derivatives” (Yeda Research and Development Co. Ltd., priority 1998, dated 2004)
